The results in this text go back to patent publication US11319347B2, “Peptide compound and method for producing same, composition for screening use, and method for selecting peptide compound” (FUJIFILM Corporation, priority 2017, dated 2022).

SMILES strings stand for the structures. Starred links: 1 amine or outer side, 2 acyl side, 3 side chain; linkers in the order of their positions; H or OH if unused. Positions of bridges follow the written chain, without caps; N, C: chain ends. Non-standard residues stand in square brackets, D forms with d. Residues, ends and D or L forms follow the SMILES beside them. ξ: configuration not given here. 2Pal(6-thiazolin-2-yl-4R-CO) = O=C([C@H](Cc1cccc(C2=N[C@H](C(=O)[*:3])CS2)n1)N[*:1])[*:2]; Ile(3ξ) = CCC(C)[C@H](N)C(=O)O

One may read the Kd as the constant that tells how readily two partners part at equilibrium.

The target of one experiment is Mcl-1. Briefly: Binding of synthetic peptide to target protein by surface plasmon resonance (SPR, Biacore T200). The following applies: 25° C., immobilized Mcl-1, Table 51, read-out: Binding evaluation result (KD). As for the experimental part:
Preparation of Target Protein
A plasmid construct was prepared in which a gene containing the amino acid 1-172 portion of MCL-1 was introduced into plasmid pET28a, and a His6 tag, MBP, and a TEV protease recognition sequence were attached to the N terminal side thereof. This plasmid was transformed into E. coli strain BL21 (DE3) RIPL which was then cultured at 30° C. In a case where the O.D. reached 0.8, IPTG […] was added to induce large-scale expression, followed by culturing at 16° C. overnight. The recovered bacterial cells were suspended in Lysis Buffer A (25 mmol/L Tris (pH 7.5), 150 mmol/L NaCl), and then disrupted by sonication. This was followed by centrifugation at 15 krpm for 15 minutes. The supernatant after centrifugation was purified using a Ni-NTA resin (manufactured by QIAGEN GmbH). The sample adsorbed to the Ni-NTA resin was washed with Lysis Buffer A containing 15 mmol/L imidazole and then eluted with Lysis Buffer A containing 200 mmol/L imidazole. The sample was stored at −80° C. after substitution with Lysis buffer by dialysis.
Evaluation of Binding of Synthetic Peptide to Target Protein Using Surface Plasmon Resonance (SPR)
An SPR experiment for analyzing the interaction of a synthetic peptide with Mel-1 was carried out at 25° C. using Biacore T200 (manufactured by GE Healthcare Inc.). The synthetic peptide was added to the immobilized protein, and the interaction therebetween was evaluated.
A buffer obtained by adding dimethylformamide (DMF) or dimethylsulfoxide (DMSO) to a final concentration of 1 vol % to HBS-EP+ (manufactured by GE Healthcare Inc.) was used as a running buffer. Mcl-1 was immobilized on a Biacore Sensor Chip Series S Sensor Chip CM5 (manufactured by GE Healthcare Inc.) using an Amine Coupling Kit (manufactured by GE Healthcare Inc.). In order to measure the dissociation constant (KD), each synthetic peptide was added at multiple concentrations to obtain a sensorgram of binding to immobilized Mel-1.
The analysis of the obtained sensorgram was carried out using T200 evaluation software (manufactured by GE Healthcare Inc.). Solvent correction to DMF or DMSO was carried out, and then the KD was determined by equilibrium value analysis using a sensorgram obtained by subtracting the sensorgram to a flow cell in which Mcl-1 is not immobilized.
One having a KD of less than 50 μmol/L is denoted as A, and one having a KD of 50 μmol/L or more is denoted as B.
Binding of the synthetic peptide to the target protein was evaluated in the same manner as described above.
In general terms: In SPR one partner is held on a chip, and binding of the other changes the refractive index at the surface.
On to `CC(C)C[C@@H]1NC(=O)[C@H](Cc2ccccc2)NC(=O)[C@H](C)NC(=O)[C@@H]2CCCN2C(=O)[C@H](Cc2c[nH]c3ccccc23)NC(=O)[C@H](CC(C)C)NC(=O)[C@@H](CS)NC(=O)[C@H](C)NC(=O)C(Cc2c[nH]c3ccccc23)NC(=O)[C@H](CO)NC(=O)C(CCCNC(=N)N)NC(=O)[C@@H]2CSC(=N2)c2cccc(n2)C[C@H](C(N)=O)NC(=O)[C@H](Cc2ccc(O)cc2)NC(=O)[C@H](Cc2c[nH]c3ccccc23)NC1=O` (stereo partly drawn) [Cyclic peptide a-5-1], for which the Kd was at least 50 µM.

`CC(C)C[C@@H]1NC(=O)[C@H](C(C)C)NC(=O)[C@H](CO)NC(=O)[C@H](Cc2ccccc2)NC(=O)[C@H](C)NC(=O)[C@H](Cc2c[nH]c3ccccc23)NC(=O)[C@@H]2CSC(=N2)c2cccc(n2)C[C@H](C(N)=O)NC(=O)[C@H](Cc2c[nH]c3ccccc23)NC(=O)[C@H](C(C)C)NC(=O)[C@@H]2CCCN2C(=O)[C@H](Cc2ccccc2)NC(=O)[C@H](Cc2c[nH]c3ccccc23)NC(=O)[C@@H]2CCCN2C(=O)[C@H](Cc2c[nH]c3ccccc23)NC1=O` [Cyclic peptide a-5-2]: the Kd was at least 50 µM.

In the case of `CC(C)C[C@@H]1NC(=O)[C@H](C)NC(=O)[C@@H](Cc2ccccc2)NC(=O)[C@@H]2CSC(=N2)c2cccc(n2)C[C@@H](C(N)=O)NC(=O)[C@H](Cc2ccccc2)NC(=O)[C@H](C)NC(=O)[C@H](CC(C)C)NC(=O)[C@@H]2CCCN2C(=O)[C@@H](CC(C)C)NC(=O)[C@@H](Cc2ccccc2)NC(=O)[C@H](CCC(N)=O)NC(=O)[C@@H]2CCCN2C(=O)[C@@H](Cc2c[nH]c3ccccc23)NC(=O)[C@H](CC(C)C)NC1=O` [Cyclic peptide a-5-3] ([dF]ALL[dW]PQ[dF][dL]PLAF[2Pal(6-thiazolin-2-yl-4R-CO)]-NH2; lactam N-14), the Kd is at least 50 µM.

`CC(C)C[C@@H]1NC(=O)[C@H](C(C)C)NC(=O)[C@H](CO)NC(=O)[C@H](Cc2c[nH]c3ccccc23)NC(=O)[C@@H]2CSC(=N2)c2cccc(n2)C[C@@H](C(N)=O)NC(=O)[C@H](CO)NC(=O)[C@H](C(C)C)NC(=O)[C@H](CO)NC(=O)[C@@H]2CCCN2C(=O)[C@H](C(C)C)NC(=O)[C@H](Cc2ccccc2)NC(=O)[C@H](Cc2c[nH]c3ccccc23)NC(=O)[C@@H]2CCCN2C(=O)[C@H](Cc2c[nH]c3ccccc23)NC1=O` [Cyclic peptide a-5-4] (WSVLWPWFVPSVS[2Pal(6-thiazolin-2-yl-4R-CO)]-NH2; lactam N-14): the dissociation constant Kd was below 50 µM.

`CC(C)C[C@@H]1NC(=O)CNC(=O)[C@@H]2CCCN2C(=O)[C@H](CCC(=O)O)NC(=O)[C@H](Cc2ccccc2)NC(=O)[C@H](CO)NC(=O)[C@@H]2CSC(=N2)c2cccc(n2)C[C@@H](C(N)=O)NC(=O)[C@H](CC(C)C)NC(=O)[C@H](C(C)C)NC(=O)[C@H](CCCNC(=N)N)NC(=O)[C@H](Cc2ccccc2)NC(=O)[C@H](CC(C)C)NC(=O)[C@H](Cc2c[nH]c3ccccc23)NC(=O)[C@H](Cc2c[nH]c3ccccc23)NC1=O` [Cyclic peptide a-5-5] (SFEPGLWWLFRVL[2Pal(6-thiazolin-2-yl-4R-CO)]-NH2; lactam N-14): the Kd was below 50 µM.

With `CC(C)C[C@@H]1NC(=O)[C@H](Cc2c[nH]c3ccccc23)NC(=O)[C@@H]2CCCN2C(=O)[C@H](Cc2c[nH]c3ccccc23)NC(=O)[C@H](CC(C)C)NC(=O)[C@H](C(C)C)NC(=O)[C@H](CS)NC(=O)[C@H](Cc2c[nH]c3ccccc23)NC(=O)[C@H](CO)NC(=O)[C@@H]2CSC(=N2)c2cccc(n2)C[C@@H](C(N)=O)NC(=O)CNC(=O)[C@H](Cc2c[nH]c3ccccc23)NC(=O)[C@H](Cc2ccccc2)NC(=O)[C@H](C(C)C)NC1=O` [Cyclic peptide a-5-6] (SWCVLWPWLVFWG[2Pal(6-thiazolin-2-yl-4R-CO)]-NH2; lactam N-14), the dissociation constant Kd was at least 50 µM.

As for `CCC(C)[C@@H]1NC(=O)[C@@H]2CCCN2C(=O)[C@H](Cc2c[nH]c3ccccc23)NC(=O)[C@H](CC(C)C)NC(=O)[C@H](CC(C)C)NC(=O)[C@H](C(C)C)NC(=O)[C@H](Cc2c[nH]c3ccccc23)NC(=O)[C@@H]2CCCN2C(=O)[C@@H]2CSC(=N2)c2cccc(n2)C[C@@H](C(N)=O)NC(=O)[C@H](CC(C)C)NC(=O)[C@H](CO)NC(=O)[C@@H]2CCCN2C(=O)[C@H](C(C)C)NC(=O)[C@H](CC(C)C)NC1=O` (stereo partly drawn) [Cyclic peptide a-5-7] (PWVLLWP[Ile(3ξ)]LVPSL[2Pal(6-thiazolin-2-yl-4R-CO)]-NH2; lactam N-14), the dissociation constant Kd was at least 50 µM.

As to `CC(C)C[C@@H]1NC(=O)[C@H](C)NC(=O)[C@H](Cc2ccccc2)NC(=O)[C@H](C)NC(=O)[C@@H]2CCCN2C(=O)[C@H](Cc2c[nH]c3ccccc23)NC(=O)[C@H](CC(C)C)NC(=O)[C@H](CS)NC(=O)[C@H](C)NC(=O)[C@H](Cc2c[nH]c3ccccc23)NC(=O)[C@@H]2CSC(=N2)c2cccc(n2)C[C@@H](C(N)=O)NC(=O)[C@H](CC(C)C)NC(=O)[C@H](Cc2c[nH]c3ccccc23)NC(=O)[C@H](CO)NC1=O` [Cyclic peptide a-5-8] (WACLWPAFALSWL[2Pal(6-thiazolin-2-yl-4R-CO)]-NH2; lactam N-14), the Kd is at least 50 µM.

Still in this experiment, the particulars now being: immobilized Mcl-1, Table 53 (peptides from mRNA display), read-out: Binding evaluation result (KD).
For the compound `CC(C)C[C@@H]1NC(=O)[C@@H]2CCCN2C(=O)[C@H](Cc2c[nH]c3ccccc23)NC(=O)[C@H](Cc2ccccc2)NC(=O)[C@H]([C@H](C)O)NC(=O)[C@@H]2CCCN2C(=O)[C@H](CC(=O)O)NC(=O)[C@H](CS)NC(=O)[C@H](Cc2ccc(O)cc2)NC(=O)[C@H](CCC(=O)O)NC(=O)[C@@H]2CSC(=N2)c2cc(cs2)C[C@@H](C(N)=O)NC(=O)[C@H](CCCNC(=N)N)NC(=O)[C@H](CCCNC(=N)N)NC(=O)[C@H](Cc2ccccc2)NC1=O` [a-6-1], the Kd is below 50 µM.

As to `CC(C)C[C@@H]1NC(=O)[C@H](CC(=O)O)NC(=O)[C@H](CCC(N)=O)NC(=O)[C@H](CC(=O)O)NC(=O)[C@H](CCCCN)NC(=O)[C@H](Cc2ccc(O)cc2)NC(=O)[C@H](CC(=O)O)NC(=O)[C@H](Cc2ccc(O)cc2)NC(=O)[C@H](CCC(=O)O)NC(=O)[C@H](Cc2ccccc2)NC(=O)[C@H](C)NC(=O)CNC(=O)[C@H](C)NC(=O)[C@@H]2CSC(=N2)c2cc(cs2)C[C@H](C(N)=O)NC1=O` [a-6-2], the equilibrium dissociation constant (Kd) is at least 50 µM.

For `CC[C@H](C)[C@@H]1NC(=O)[C@H](CC(=O)O)NC(=O)[C@@H]2CSC(=N2)c2cc(cs2)CC(C(N)=O)NC(=O)[C@H](CCCNC(=N)N)NC(=O)[C@H](CC(=O)O)NC(=O)CNC(=O)[C@H](CC(=O)O)NC(=O)[C@H](CCCCN)NC(=O)[C@H](Cc2ccc(O)cc2)NC(=O)[C@H](CC(=O)O)NC(=O)[C@H](Cc2ccc(O)cc2)NC(=O)[C@H](C(C)C)NC(=O)CNC(=O)[C@H](C(C)C)NC1=O` (stereo partly drawn) [a-6-3], the Kd was at least 50 µM.

As for `CC[C@H](C)[C@@H]1NC(=O)[C@H](CO)NC(=O)[C@H](CCCNC(=N)N)NC(=O)[C@H](CC(C)C)NC(=O)[C@H]([C@@H](C)O)NC(=O)[C@H](CO)NC(=O)[C@H](C)NC(=O)[C@H]([C@@H](C)O)NC(=O)[C@H](CCC(=O)O)NC(=O)[C@H](CCC(=O)O)NC(=O)[C@@H]2CSC(=N2)c2cc(cs2)C[C@@H](C(N)=O)NC(=O)[C@H](CO)NC(=O)[C@H](CC(=O)O)NC(=O)CNC1=O` [a-6-4], the Kd is below 50 µM.

For the compound `CC[C@H](C)[C@@H]1NC(=O)[C@H](CO)NC(=O)[C@H](CO)NC(=O)[C@H](CC(C)C)NC(=O)[C@H]([C@@H](C)O)NC(=O)[C@H]([C@@H](C)O)NC(=O)[C@@H]2CSC(=N2)c2cc(cs2)C[C@@H](C(N)=O)NC(=O)[C@H](CCCNC(=N)N)NC(=O)[C@H](CCCNC(=N)N)NC(=O)[C@H](CC(=O)O)NC(=O)[C@H](C(C)C)NC(=O)[C@H](CCC(N)=O)NC(=O)[C@H](CC(=O)O)NC(=O)CNC1=O` [a-6-5], the Kd is below 50 µM.

As for `CC[C@H](C)[C@@H]1NC(=O)[C@H](CCC(N)=O)NC(=O)[C@H](CCCNC(=N)N)NC(=O)[C@H](CC(C)C)NC(=O)CNC(=O)[C@H](CC(=O)O)NC(=O)[C@H](C(C)C)NC(=O)[C@H](C(C)C)NC(=O)[C@H](CC(N)=O)NC(=O)[C@@H]2CCCN2C(=O)[C@@H]2CSC(=N2)c2cc(cs2)CC(C(N)=O)NC(=O)[C@H]([C@@H](C)O)NC(=O)[C@H](CC(=O)O)NC(=O)CNC1=O` (stereo partly drawn) [a-6-6], the Kd was below 50 µM.

For the compound `CC(C)C[C@H](NC(=O)[C@H](CC(=O)O)NC(=O)[C@H](CCCCN)NC(=O)[C@@H](NC(=O)[C@H](C)NC(=O)[C@H](C)NC(=O)[C@H]1Cc2csc(c2)C2=N[C@@H](CS2)C(=O)N[C@@H](CC(=O)O)C(=O)N[C@@H](CO)C(=O)N[C@@H](Cc2ccc(O)cc2)C(=O)N1)C(C)C)C(=O)N[C@@H](CCC(=O)O)C(=O)N[C@@H](CC(N)=O)C(=O)N[C@@H](C)C(=O)N[C@@H](Cc1csc(C#N)c1)C(N)=O` [a-6-7], the dissociation constant (Kd) was below 50 µM.
